In publication PMC2682793, “Enhanced muscarinic M1 receptor gene expression in the corpus striatum of streptozotocin-induced diabetic rats” (Journal of Biomedical Science, 2009):

Biological target: T1, total muscarinic receptor
T1 construct: gene Chrm1
Type: biochemical, Rattus norvegicus
Conditions: control rats; striatal membranes; 1 nM [3H]QNB; Tris-HCl-EDTA pH 7.4; 22°C; one-site fit; unit not printed (concentrations in M); logarithmic value; EC50 stated to be same as IC50
From the text: [3H]QNB displacement, filtration on total muscarinic receptor

Compound: CN1[C@@H]2CC[C@H]1CC(OC(=O)C(CO)c1ccccc1)C2 (stereo partly shown) [atropine]
- Log (EC50): -7.076
